From patent publication US10987359B2, “Oxadiazepinone derivatives and methods of treating hepatitis B infections” (priority 2016, dated 2021) come the findings set out here.

Where two headings read alike, the source gives them in different places.

For the assay, the system named is HBV. The assay is described as follows: HBV replication inhibition assay (BDNA assay) in HepG2.2.15 cells. The settings on record: HepG2.2.15 cells, read-out: DNA EC50. It counts as cell-based. The essentials:
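Supernatant encapsidated HBV DNA was measured by bDNA after DNase digestion and proteinase K release. Stably HBV-integrated HepG2.2.15 cells had two 3-day compound exposures (0.5% DMSO). Signals were background-subtracted and normalized to DMSO wells, and EC50 was obtained by four-parameter fit.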

Where [1] appears, read: HBV replication assay (BDNA assay).
The mark [2] stands for this setting: Hepatitis B virus, HepG2.2.15, HBV replication assay (BDNA assay).

One may read the EC50 as the concentration that produces a half-maximal response.

Consider `C[C@@H]1Cc2nn3c(c2CN1C(=O)Nc1ccc(F)c(C#N)c1)C(=O)N(C)OC(CO)C3` (stereo in doubt) [Compound 084_E2, (4R*,9R)—N-(3-cyano-4-fluorophenyl)-4-(hydroxymethyl)-2,9-dimethyl-1-oxo-1,4,5,8,9,11-hexahydropyrido[4′,3′:3,4]pyrazolo [5,1-d][1,2,5]oxadiazepine-10(2H)-carboxamide], for which the EC50 under setting [1] was in the range of 1 to 100 nM.
`C[C@@H]1Cc2nn3c(c2CN1C(=O)Nc1ccc(F)c(C(F)(F)F)c1)C(=O)N(C)OC(CF)C3` (stereo in doubt) [Compound 085_E1, (4S*,9R)—N-(4-fluoro-3-(trifluoromethyl)phenyl)-4-(fluoromethyl)-2,9-dimethyl-1-oxo-1,4,5,8,9,11-hexahydropyrido[4′,3′:3,4]pyrazolo[5,1-d][1,2,5]oxadiazepine-10(2H)-carboxamide]: the EC50 under setting [2] was 1 to 100 nM.
Consider `C[C@@H]1Cc2nn3c(c2CN1C(=O)Nc1ccc(F)c(C(F)(F)F)c1)C(=O)N(C)OC(CF)C3` (stereo in doubt) [Compound 085_E2, (4R*,9R)—N-(4-fluoro-3-(trifluoromethyl)phenyl)-4-(fluoromethyl)-2,9-dimethyl-1-oxo-1,4,5,8,9,11-hexahydropyrido[4′,3′:3,4]pyrazolo[5,1-d][1,2,5]oxadiazepine-10(2H)-carboxamide], for which the EC50 under setting [1] lay within 1 to 100 nM.
Turning to `Cc1cc(NC(=O)N2Cc3c(nn4c3C(=O)N(C)OC(CF)C4)C[C@H]2C)ccc1F` (stereo in doubt) [Compound 086_E1, (4S*,9R)—N-(4-fluoro-3-methylphenyl)-4-(fluoromethyl)-2,9-dimethyl-1-oxo-1,4,5,8,9,11-hexahydropyrido[4′,3′:3,4]pyrazolo[5,1-d][1,2,5]oxadiazepine-10(2H)-carboxamide], the EC50 under setting [2] lay in the range of 1 to 100 nM.
Consider `Cc1cc(NC(=O)N2Cc3c(nn4c3C(=O)N(C)OC(CF)C4)C[C@H]2C)ccc1F` (stereo in doubt) [Compound 086_E2, (4R*,9R)—N-(4-fluoro-3-methylphenyl)-4-(fluoromethyl)-2,9-dimethyl-1-oxo-1,4,5,8,9,11-hexahydropyrido[4′,3′:3,4]pyrazolo[5,1-d][1,2,5]oxadiazepine-10(2H)-carboxamide], for which, under setting [1], the EC50 was in the range of 1 to 100 nM.
Consider `C[C@@H]1Cc2nn3c(c2CN1C(=O)Nc1ccc(F)c(C#N)c1)C(=O)N(C)OC(CF)C3` (stereo in doubt) [Compound 087_E1, (4S*,9R)—N-(3-cyano-4-fluorophenyl)-4-(fluoromethyl)-2,9-dimethyl-1-oxo-1,4,5,8,9,11-hexahydropyrido[4′,3′:3,4]pyrazolo[5,1-d][1,2,5]oxadiazepine-10(2H)-carboxamide], for which the EC50 under setting [2] fell in the range of 1 to 100 nM.
Regarding `C[C@@H]1Cc2nn3c(c2CN1C(=O)Nc1ccc(F)c(C#N)c1)C(=O)N(C)OC(CF)C3` (stereo in doubt) [Compound 087_E2, (4R*,9R)—N-(3-cyano-4-fluorophenyl)-4-(fluoromethyl)-2,9-dimethyl-1-oxo-1,4,5,8,9,11-hexahydropyrido[4′,3′:3,4]pyrazolo[5,1-d][1,2,5]oxadiazepine-10(2H)-carboxamide], the concentration giving a half-maximal response (EC50) under setting [1] is 1 to 100 nM.
As for `C[C@@H]1Cc2nn3c(c2CN1C(=O)Nc1cc(Br)c(F)cc1F)C(=O)N(C)OC(CO)C3` (stereo in doubt) [Compound 089_E1, (4S*,9R)—N-(5-bromo-2,4-difluorophenyl)-4-(hydroxymethyl)-2,9-dimethyl-1-oxo-1,4,5,8,9,11-hexahydropyrido[4′,3′:3,4]pyrazolo[5,1-d][1,2,5]oxadiazepine-10(2H)-carboxamide], under setting [2], the EC50 lay within 1 to 100 nM.
Consider `C[C@@H]1Cc2nn3c(c2CN1C(=O)Nc1cc(Br)c(F)cc1F)C(=O)N(C)OC(CO)C3` (stereo in doubt) [Compound 089_E2, (4R*,9R)—N-(5-bromo-2,4-difluorophenyl)-4-(hydroxymethyl)-2,9-dimethyl-1-oxo-1,4,5,8,9,11-hexahydropyrido[4′,3′:3,4]pyrazolo[5,1-d][1,2,5]oxadiazepine-10(2H)-carboxamide], for which the EC50 under setting [1] lay within 1 to 100 nM.
For the compound `C[C@@H]1Cc2nn3c(c2CN1C(=O)Nc1cc(Cl)c(F)cc1F)C(=O)N(C)OC(CO)C3` (stereo in doubt) [Compound 090_E1, (4S*,9R)—N-(5-chloro-2,4-difluorophenyl)-4-(hydroxymethyl)-2,9-dimethyl-1-oxo-1,4,5,8,9,11-hexahydropyrido[4′,3′:3,4]pyrazolo[5,1-d][1,2,5]oxadiazepine-10(2H)-carboxamide], the concentration for a half-maximal effect (EC50) under setting [2] lay in the range of 1 to 100 nM.
For the compound `C[C@@H]1Cc2nn3c(c2CN1C(=O)Nc1cc(Cl)c(F)cc1F)C(=O)N(C)OC(CO)C3` (stereo in doubt) [Compound 090_E2, (4R*,9R)—N-(5-chloro-2,4-difluorophenyl)-4-(hydroxymethyl)-2,9-dimethyl-1-oxo-1,4,5,8,9,11-hexahydropyrido[4′,3′:3,4]pyrazolo[5,1-d][1,2,5]oxadiazepine-10(2H)-carboxamide], the EC50 under setting [1] lay in the range of 1 to 100 nM.
Regarding `C[C@@H]1Cc2nn3c(c2CN1C(=O)Nc1ccc(F)c(Cl)c1F)C(=O)N(C)OC(CO)C3` (stereo in doubt) [Compound 091_E1, (4S*,9R)—N-(3-chloro-2,4-difluorophenyl)-4-(hydroxymethyl)-2,9-dimethyl-1-oxo-1,4,5,8,9,11-hexahydropyrido[4′,3′:3,4]pyrazolo[5,1-d][1,2,5]oxadiazepine-10(2H)-carboxamide], the EC50 under setting [2] lay in the range of 1 to 100 nM.
For the compound `C[C@@H]1Cc2nn3c(c2CN1C(=O)Nc1ccc(F)c(Cl)c1F)C(=O)N(C)OC(CO)C3` (stereo in doubt) [Compound 091_E2, (4R*,9R)—N-(3-chloro-2,4-difluorophenyl)-4-(hydroxymethyl)-2,9-dimethyl-1-oxo-1,4,5,8,9,11-hexahydropyrido[4′,3′:3,4]pyrazolo[5,1-d][1,2,5]oxadiazepine-10(2H)-carboxamide], the EC50 under setting [1] fell in the range of 1 to 100 nM.
On to `C[C@@H]1Cc2nn3c(c2CN1C(=O)Nc1ccc(F)c(Cl)c1)C(=O)N(C)OC(CN(C)C)C3` (stereo in doubt) [Compound 093_D2, (4R*,9R)—N-(3-chloro-4-fluorophenyl)-4-((dimethylamino)methyl)-2,9-dimethyl-1-oxo-1,4,5,8,9,11-hexahydropyrido[4′,3′:3,4]pyrazolo[5,1-d][1,2,5]oxadiazepine-10(2H)-carboxamide], for which the EC50 under setting [2] lay in the range of 1 to 100 nM.
With `C[C@@H]1Cc2nn3c(c2CN1C(=O)Nc1ccc(F)c(Br)c1)C(=O)N(C)OC(CN(C)C)C3` (stereo in doubt) [Compound 094_D1, (4S*,9R)—N-(3-bromo-4-fluorophenyl)-4-((dimethylamino)methyl)-2,9-dimethyl-1-oxo-1,4,5,8,9,11-hexahydropyrido[4′,3′:3,4]pyrazolo[5,1-d][1,2,5]oxadiazepine-10(2H)-carboxamide], the EC50 under setting [2] was in the range of 1 to 100 nM.
Regarding `C[C@@H]1Cc2nn3c(c2CN1C(=O)Nc1ccc(F)c(Br)c1)C(=O)N(C)OC(CN(C)C)C3` (stereo in doubt) [Compound 094_D2, (4R*,9R)—N-(3-bromo-4-fluorophenyl)-4-((dimethylamino)methyl)-2,9-dimethyl-1-oxo-1,4,5,8,9,11-hexahydropyrido[4′,3′:3,4]pyrazolo[5,1-d][1,2,5]oxadiazepine-10(2H)-carboxamide], the EC50 under setting [1] was 1 to 100 nM.
Consider `C[C@@H]1Cc2nn3c(c2CN1C(=O)Nc1ccnc(Br)c1F)C(=O)N(C)OC(CN(C)C)C3` (stereo in doubt) [Compound 095_D1, (4S*,9R)—N-(2-bromo-3-fluoropyridin-4-yl)-4-((dimethylamino)methyl)-2,9-dimethyl-1-oxo-1,4,5,8,9,11-hexahydropyrido[4′,3′:3,4]pyrazolo[5,1-d][1,2,5]oxadiazepine-10(2H)-carboxamide], for which the EC50 under setting [2] was in the range of 100 to 500 nM.
On to `C[C@@H]1Cc2nn3c(c2CN1C(=O)Nc1ccnc(Br)c1F)C(=O)N(C)OC(CN(C)C)C3` (stereo in doubt) [Compound 095_D2, (4R*,9R)—N-(2-bromo-3-fluoropyridin-4-yl)-4-((dimethylamino)methyl)-2,9-dimethyl-1-oxo-1,4,5,8,9,11-hexahydropyrido[4′,3′:3,4]pyrazolo[5,1-d][1,2,5]oxadiazepine-10(2H)-carboxamide], for which the EC50 under setting [1] was in the range of 100 to 500 nM.
Consider `C[C@@H]1Cc2nn3c(c2CN1C(=O)Nc1ccc(F)c(C#N)c1)C(=O)N(C)OC(CN(C)C)C3` (stereo in doubt) [Compound 096_D1, (4S*,9R)—N-(3-cyano-4-fluorophenyl)-4-((dimethylamino)methyl)-2,9-dimethyl-1-oxo-1,4,5,8,9,11-hexahydropyrido[4′,3′:3,4]pyrazolo[5,1-d][1,2,5]oxadiazepine-10(2H)-carboxamide], for which the EC50 under setting [1] was in the range of 100 to 500 nM.
Take `C[C@@H]1Cc2nn3c(c2CN1C(=O)Nc1ccc(F)c(C#N)c1)C(=O)N(C)OC(CN(C)C)C3` (stereo in doubt) [Compound 096_D2, (4R*,9R)—N-(3-cyano-4-fluorophenyl)-4-((dimethylamino)methyl)-2,9-dimethyl-1-oxo-1,4,5,8,9,11-hexahydropyrido[4′,3′:3,4]pyrazolo[5,1-d][1,2,5]oxadiazepine-10(2H)-carboxamide]: under setting [1], the EC50 is 1 to 100 nM.
For `Cc1cc(NC(=O)N2Cc3c(nn4c3C(=O)N(C)OC(CN(C)C)C4)C[C@H]2C)ccc1F` (stereo in doubt) [Compound 097_D1, (4 S*,9R)-4-((dimethylamino)methyl)-N-(4-fluoro-3-methylphenyl)-2,9-dimethyl-1-oxo-1,4,5,8,9,11-hexahydropyrido[4′,3′:3,4]pyrazolo[5,1-d][1,2,5]oxadiazepine-10(2H)-carboxamide], the EC50 under setting [2] was in the range of 1 to 100 nM.
With `Cc1cc(NC(=O)N2Cc3c(nn4c3C(=O)N(C)OC(CN(C)C)C4)C[C@H]2C)ccc1F` (stereo in doubt) [Compound 097_D2, (4R*,9R)-4-((dimethylamino)methyl)-N-(4-fluoro-3-methylphenyl)-2,9-dimethyl-1-oxo-1,4,5,8,9,11-hexahydropyrido[4′,3′:3,4]pyrazolo[5,1-d][1,2,5]oxadiazepine-10(2H)-carboxamide], the EC50 under setting [1] was 1 to 100 nM.
